Assay results: patent US12678453B2, “Aerosolized formulations of HIV protease inhibitors for the treatment of airway reflux” (The Medical College of Wisconsin, Inc., priority 2020, dated 2026)
Square brackets hold non-standard residues; d marks the D form. Peptide text beside a SMILES is read from it. * marks the point of attachment. Sta = CC(C)C[C@H](N)[C@@H](O)CC(=O)O; Isovaleryl = CC(C)CC(=O)*

Legend:
[1] = known clinical profile; cited from earlier work
[2] = tested on: mouse model of laryngopharyngeal reflux (LPR); experiment: in vivo mouse model of LPR (laryngeal wounding and pepsin instillation, H&E histology); details: for laryngeal histology (H&E) / pepsin-mediated laryngeal injury: pepsin pH7 group; for laryngeal histology (H&E): solvent (saline/PBS pH7) group
Description: An in vivo mouse model of direct application of pepsin, to mimic laryngeal exposure during LPR, and treatment with select HIV protease inhibitors by either gavage (oral systemic delivery) or aerosolized delivery (inhaled local delivery) was used. […] Each group contained 3 mice. Six-week-old female Jackson A/J mice (Jackson Laboratory, Bar Harbor, ME), weighed one day after arrival, then weekly, on Mondays thereafter.
Avertin was the preferred anesthetic for the brief application time needed as it has a rapid induction, produces a short surgical anesthesia, and has a rapid recovery. […] For this experiment, isoflurane inhalation was used. The isoflurane, self-scavenging machine, was operated at 3% isoflurane with 2.5 liters of air per minute (LPM). The induction chamber was charged for 3-5 minutes prior to the mice being anesthetized. Mice were placed in the induction chamber for 3-5 minutes prior to any wounding or administrations. Anesthesia records were kept according to IACUC policy.
Animals secured by a copper wire attached to the board from which the mice were suspended by their upper teeth. This caused the lower jaw to fall open naturally, exposing the larynx and permitting visualization with a Zeiss microscope at 6× magnification. […] Under direct visualization, the subglottis, glottis, and supraglottis regions were superficially scratched interiorly from distal to proximal as the needle was pulled out gently, making a mild abrasion. This procedure was performed twice, with one week between woundings.
To examine the effect pepsin at acid and nonacid pH, animals were treated for 2 weeks with laryngeal instillation of pepsin (20 μL at 0.3 mg/ml, pH 7.0 or pH 4.0) at 24, 48, and 72 h post wounding procedure. During weeks 3 and 4, animals were treated with laryngeal instillation for 3 days per week. Mice were sacrificed and samples collected on Friday of the fourth week.
The twelve mice in the aerosol groups were condition in the nose-only exposure chamber (Intox) on three separate days by exposure to dry air for 10 min. Beginning the Monday (day 1) of the next week, aerosols and gavages were performed on the mice Monday through Friday (5 exposures). The aerosols and gavages continued Monday-Friday for three more weeks, with the final week consisting of 4 total exposure days, Monday-Thursday, (19 total) with the mice sacrificed and tissues harvested on Friday. Each mouse received two woundings and 12 solvent or pepsin administrations. Wounding and intratracheal administrations were concurrent with the aerosol and gavage treatments. The first wounding was performed on day 2, followed by solvent or pepsin administrations on days 3, 4, and 5. The second wounding was performed on day 8, followed by solvent or pepsin administrations on days 9, 10, and 11. In weeks 3 and 4, mice received solvent or pepsin administrations on days 16, 17, and 18 and days 23, 24, and 25. Day 26 was sacrifice and tissue harvest.
A 10 mL suspension of drug in ethanol was placed in the baffle, such that the concentration would remain constant at the equilibrium solubility. Droplets of ethanol containing dissolve drug were generated by an ultrasonic atomizer (nominal frequency 1.7 MHz) entrained by air at a flow rate of 0.5 LPM with a custom-built glass baffle (University of Minnesota, Department of Chemistry Glass Shop). The aerosol cloud was then passed through a cylindrical drying column containing an annular ring of charcoal. The ethanol is removed and the emanating dry aerosol particles of pure drug were then directed into the exposure chamber.
The mass deposited on the filters in a fixed collection time was measured gravimetrically, and with the collection time, allowed calculation of the total output rate (mg/min). The aerosol concentration (mass/volume of air) was calculated by dividing the total output rate by the air flow rate (0.5 LPM).

[3] = tested on: 14 relevant biomarkers for inflammation and toxicity; experiment: Luminex assay of bronchiolar lavage samples; assay type: in vivo, mice; details: control versus lowest dose
Description: Bronchiolar lavage samples were collected from all mice and a Luminex assay was used to measure 14 relevant biomarkers for inflammation and toxicity.

[4] = cited from earlier work
[5] = preliminary 12-day toxicity study of aerosolized fosamprenavir; assay type: in vivo, mice; details: 12-day exposure
Method: In the following Example, the inventors used a small-scale powder disperser (SSPD) to aerosolize Fosamprenavir powder, and monitored particle size distribution by an Optical Particle Sizer (OPS). The SSPD inhales the powder through a venturi aspirator, which is then sampled through OPS at 1 L/min of flow (FIG. 11).
A preliminary 12-day toxicity study was conducted in mice. […] This was the only animal affected, across 15 treated mice, so this is suspected to be unrelated to the fosamprenavir treatment.

pepsin = details: Roberts 2003; cited from earlier work
[6] = cited from earlier work; remark: listed apart in the source

Row | Structure (SMILES) | side effects / tolerability [1] | laryngeal histology (H&E) / pepsin-mediated laryngeal injury ([2]; aerosol) | laryngeal histology (H&E) ([2]; aerosol) | laryngeal histology (H&E) / pepsin-mediated laryngeal injury ([2]; gavage) | laryngeal histology (H&E) ([2]; gavage) | pepsin-mediated laryngeal injury (multi-layered, reactive epithelia and cell apoptosis) ([2]; inhalation, 1 mg/kg/d) | IL-6 in bronchiolar lavage [3] | pharmacokinetics ([4]; in mice) | oral bioavailability ([4]; prodrug compared with amprenavir) | pathology in nasal cavity, larynx, esophagus, trachea, lung, liver, and kidney tissues ([5]; mice) | heart pathology ([5]; one of 15 treated mice, suspected to be unrelated to treatment) | affinity for pepsin (pepsin) | water solubility [6]
1 | CC(C)CN(C[C@@H](OP(=O)(O)O)[C@H](Cc1ccccc1)NC(=O)O[C@H]1CCOC1)S(=O)(=O)c1ccc(N)cc1 [fosamprenavir, [(3 S)-oxolan-3-yl]N-[(2S,3R)-4-[(4-aminophenyl)sulfonyl-(2-methylpropyl)amino]-1-phenyl-3-phosphonooxybutan-2-yl]carbamate] | favorable tolerability profile | normal histology | normal histology | normal histology | normal histology | prevented pepsin mediated laryngeal injury | showed significance | excellent pharmacokinetics | improved oral bioavailability | No pathology was observed | significant inflammation | – | –
2 | CC(C)CC(=O)N[C@H](C(=O)N[C@H](C(=O)N[C@@H](CC(C)C)[C@@H](O)CC(=O)N[C@@H](C)C(=O)N[C@@H](CC(C)C)[C@@H](O)CC(=O)O)C(C)C)C(C)C [pepstatin] (Isovaleryl-VV[Sta]A[Sta]-OH) | – | – | – | – | – | – | – | – | – | – | – | subnanomolar | poor water-solubility
